Assay results as given in patent publication US20040259096A1, “Receptor capture assay” (priority 2001, published 2004).

What was measured:
Ah receptor = details: Carver et al., 1994 JBC 269:30109-30112; cited from earlier work
AhR [1] = test: Receptor capture assay, end-point PCR with anti-DIG time-resolved fluorescence detection, Hepa 1c1c7 cell extract; type: biochemical, murine
Protocol: End-point PCR may also be utilized for dioxins. Calibrators containing 10, 100, 1000 fmol of 2,3,7,8-tetrachlorodibenzo-p-dioxin (TCDD) were prepared and 1 μl of each calibrator was dispensed into a glass test tube.
An extract from Hepa 1c1c7 cells was prepared as described by Example 1 to provide AhR for the assays. 100 μl NEAT to 0.5 μl of Hepa 1c1c7 cell extract diluted in Assay Buffer was added to each tube, thoroughly mixed, and the tubes were capped, or covered with Parafilm™. The samples were then incubated at room temperature to 37° C. for 30 min to 2 hr. Salt and salmon sperm DNA was then added to the AhR reaction medium in concentrations of 50 mM to 200 mM and 5 to 100 μg/ml, respectively. The samples were then incubated for a period ranging from 0-20 minutes at room temperature. Nucleic acid-tracer (1 nM) was added and mixed gently to allow complex formation between activated AhR and nucleic acid-tracer, where TCCD was present. The reaction tubes were incubated for a time ranging from 10 min to 1 hour, at room temperature.
Capture Strips coated with anti-ARNT antibody were prepared as described in Example 1. An aliquot of AhR reaction medium (25 to 100 μl) from each glass tube was then transferred to a corresponding well of the Capture Strip. The Capture Strips were incubated for an additional 30 min to 1 hour at room temperature, with shaking. Unbound nucleic acid-tracer was rigorously removed by washing wells five times with Wash Buffer B, optionally soaking wells for 30 sec-5 min with wash buffer during each cycle. The strips may be shaken during the soak step if desired. The strips were washed twice with water, with all liquids aspirated at the finish.
The nucleic acid-tracer remaining in the Capture Strip was PCR amplified by the following method: A PCR Master Mix was assembled with the following final concentrations: 1×PCR buffer with 1.5 mM MgCl2, 0.2 mM dATP, dCTP, dGTP, 0.15 mM dTTP, 0.05 mM DIG-dUTP (Roche, Indianapolis, Ind.), 0.5 μM each primer (PRI 1A and PRI 1B), […] Taq polymerase. The Master Mix was aliquoted 30-50 μl per well, then tape applied to seal the wells. The thermocycler profile was: 94° C., 20 sec, 15 cycles of [94° C., 30 sec, 52° C., 30 sec, 72° C. 30 sec], then 72° C., 30 sec and chilled to 4° C.
Ten μl of PCR sample was assayed by ELISA-PCR with anti-DIG detection as follows.
The PCR sample was diluted to 30 μl with water in 0.2 ml tube. The sample was heated 95° C. for 3-5 min. The immobilization (capture) probe was:
The probe was diluted to 10 nM in Hybridization Buffer (0.5× Assay Buffer, 0.5 M NaCl). The probe (100 μl=1 pmol) was then added to the hot samples, mixed, and incubated at 37° C. for 45 min.
The sample was transferred to a pre-washed streptavidin-coated microtiter wells in the form of strips or plates obtained from DELFIA catalog number 4009-0010 (Wallac, Finland) and shaken for 45 min. at room temperature. Strips or plates were washed three times with Wallac Wash Buffer (DELFIA wash concentrate, catalog number 13800865, Wallac, Finland). The Wallac Wash Buffer (1×) for the automated plate washer was made from 25× Wash Concentrate (Wallac), which contains Tris, NaCl, and TWEEN-20.
Anti-DIG antibody (Sigma Chemical Co, St. Louis, Mo.) was diluted 1/1000 in Assay Buffer and 100 μl added to each well, and strips were shaken for 30 min. […] Samples were counted on a Victor 2 multilabel counter/plate reader (catalog number 1420-012, Wallac, Finland) using time-resolved fluorescence. […]

AhR [2] = test: Receptor capture assay, real-time PCR, rodent cytosol as source of AhR; type: biochemical; details: TCDD 625 ppt

Row | Compound | affinity for the Ah receptor relative to TCDD (Ah receptor) | DNA signal over DMSO control (AhR [1]; BNF in DMSO added to Hepa 1c1c7 cell extract) | Counts (time-resolved fluorescence) (AhR [1]; TCDD 1 fmol) | Counts (time-resolved fluorescence) (AhR [1]; TCDD 10 fmol) | Counts (time-resolved fluorescence) (AhR [1]; TCDD 100 fmol) | Counts (time-resolved fluorescence) (AhR [1]; TCDD 1000 fmol) | Ct Values (AhR [2])
1 | O=c1cc(-c2ccccc2)oc2ccc3ccccc3c12 [BNF, beta-naphthoflavone] | approximately an order of magnitude less affinity for the Ah receptor than TCDD | significantly and reproducibly increased the DNA signal |  |  |  |  | 
2 | Clc1cc2c(cc1Cl)Oc1cc(Cl)c(Cl)cc1O2 [TCDD, 2,3,7,8-tetrachlorodibenzo-p-dioxin] |  |  | 5770 | 17287 | 100645 | 504879 | 22.23
